From BindingDB's records for doi:10.7270/Q2M9073J (Burnham Center For Chemical Genomics, 2010)

Target: T1, Tyrosine-protein phosphatase non-receptor type 22 (Homo sapiens, UniProt Q9Y2R2)
T1 sequence (Q9Y2R2 whole entry): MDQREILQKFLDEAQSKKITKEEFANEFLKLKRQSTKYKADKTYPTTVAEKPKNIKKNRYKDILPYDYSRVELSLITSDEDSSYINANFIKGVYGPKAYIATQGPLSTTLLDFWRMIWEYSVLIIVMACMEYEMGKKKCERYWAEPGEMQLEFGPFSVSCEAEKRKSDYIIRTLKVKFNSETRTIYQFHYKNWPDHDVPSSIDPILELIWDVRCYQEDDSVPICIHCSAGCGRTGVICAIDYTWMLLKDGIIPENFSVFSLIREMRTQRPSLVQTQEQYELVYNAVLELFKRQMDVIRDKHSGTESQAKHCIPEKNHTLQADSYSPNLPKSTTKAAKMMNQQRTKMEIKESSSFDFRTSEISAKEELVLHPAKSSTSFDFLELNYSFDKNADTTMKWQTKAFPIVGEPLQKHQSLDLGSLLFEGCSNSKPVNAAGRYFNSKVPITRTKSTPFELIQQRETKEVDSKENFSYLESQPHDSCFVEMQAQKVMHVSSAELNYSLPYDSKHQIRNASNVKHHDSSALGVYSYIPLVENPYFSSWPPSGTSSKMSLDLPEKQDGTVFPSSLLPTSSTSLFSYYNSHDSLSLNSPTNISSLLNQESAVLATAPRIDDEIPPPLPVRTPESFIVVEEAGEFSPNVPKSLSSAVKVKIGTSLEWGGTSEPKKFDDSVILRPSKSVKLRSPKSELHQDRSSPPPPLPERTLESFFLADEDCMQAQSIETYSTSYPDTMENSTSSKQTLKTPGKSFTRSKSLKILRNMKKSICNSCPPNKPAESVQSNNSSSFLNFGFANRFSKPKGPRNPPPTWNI
Assay: inhibition of lymphoid tyrosine phosphatase LYP – biochemical, pCAP fluorogenic substrate, fluorescence, set 3, SAR follow-up (AID 449727)

- IC50: > 100 µM
Structure (SMILES): CCOc1ccc2nc(NC(=O)CSc3cc(O)c4c(C)c(C)sc4n3)sc2c1 [2-[(2,3-dimethyl-4-oxidanylidene-5H-thieno[2,3-b]pyridin-6-yl)sulfanyl]-N-(6-ethoxy-1,3-benzothiazol-2-yl)ethanamide]
